Results published in US8785401B2, “Methods for treating diseases having an inflammatory component related to phospholipase A2” (Philadelphia Health & Education Corporation, priority 2005, dated 2014).

System: sPLA2
Conditions: CHEC-9 0.4 μM, LY31127 5.0 μM, whole blood, two 90 min periods at 4°

Structure (SMILES): CCc1c(CC(N)=O)c2cc(OCCCP(=O)(O)O)ccc2n1Cc1ccccc1 [LY311727]
- comparison of sPLA2 inhibition by the inhibitors alone and in sequence: equally effective inhibitors
